Earlier results on one compound are cited in patent US20230138262A1, “FAST-DISINTEGRATING SOLID HERBICIDE COMPOSITION AND THE USE THEREOF” (Rotam Agrochem International Company Limited, priority 2021, published 2023).

Each structure is given as a SMILES string.

In one data set the test system is corn. The conditions noted are these: in vivo.

Consider `Cc1c(C(=O)c2cnn(C)c2O)ccc(S(C)(=O)=O)c1C1=NOCC1` [Topramezone], for which the Safety to corn entry with corn is on record as “safe to corn”. Moreover, the “Time to appearance of albino toxication symptoms in overground part of weeds after application” value in the data set on sensitive weeds (after application) was 2 to 5 days. For the same compound, the “Time from application to death of weeds” value in the data set with sensitive weeds (depending on weather and environment) was 10 to 15 days.
